Source: ChEMBL document CHEMBL5346972, “Discovery of HDAC6, HDAC8, and 6/8 Inhibitors and Development of Cell-Based Drug Screening Models for the Treatment of TGF-β-Induced Idiopathic Pulmonary Fibrosis” (J Med Chem, 2023)

What was measured:
[1] = system: NIH3T3; experiment: Antiproliferative activity against mouse NIH3T3 cells assessed as reduction in cell viability incubated for 3 days by CCK-8 assay; type: functional, cell-based; settings: NIH3T3, 72 h
[2] = system: NIH3T3; experiment: Antiproliferative activity against mouse NIH3T3 cells assessed as reduction in cell viability by measuring optimal working concentration incubated for 3 days by CCK-8 assay relative to control; type: functional; settings: time 3 day
[3] = biological target: T1, Protein deacetylase HDAC6 (Homo sapiens, UniProt Q9UBN7); experiment: Inhibition of human HDAC6 expressed in baculovirus expression system in Sf9 cells using RHKKAc (379 to 382 residues) fluorogenic peptide as substrate and measured after 2 hrs by fluorescence based analysis
T1 sequence (Q9UBN7 whole entry): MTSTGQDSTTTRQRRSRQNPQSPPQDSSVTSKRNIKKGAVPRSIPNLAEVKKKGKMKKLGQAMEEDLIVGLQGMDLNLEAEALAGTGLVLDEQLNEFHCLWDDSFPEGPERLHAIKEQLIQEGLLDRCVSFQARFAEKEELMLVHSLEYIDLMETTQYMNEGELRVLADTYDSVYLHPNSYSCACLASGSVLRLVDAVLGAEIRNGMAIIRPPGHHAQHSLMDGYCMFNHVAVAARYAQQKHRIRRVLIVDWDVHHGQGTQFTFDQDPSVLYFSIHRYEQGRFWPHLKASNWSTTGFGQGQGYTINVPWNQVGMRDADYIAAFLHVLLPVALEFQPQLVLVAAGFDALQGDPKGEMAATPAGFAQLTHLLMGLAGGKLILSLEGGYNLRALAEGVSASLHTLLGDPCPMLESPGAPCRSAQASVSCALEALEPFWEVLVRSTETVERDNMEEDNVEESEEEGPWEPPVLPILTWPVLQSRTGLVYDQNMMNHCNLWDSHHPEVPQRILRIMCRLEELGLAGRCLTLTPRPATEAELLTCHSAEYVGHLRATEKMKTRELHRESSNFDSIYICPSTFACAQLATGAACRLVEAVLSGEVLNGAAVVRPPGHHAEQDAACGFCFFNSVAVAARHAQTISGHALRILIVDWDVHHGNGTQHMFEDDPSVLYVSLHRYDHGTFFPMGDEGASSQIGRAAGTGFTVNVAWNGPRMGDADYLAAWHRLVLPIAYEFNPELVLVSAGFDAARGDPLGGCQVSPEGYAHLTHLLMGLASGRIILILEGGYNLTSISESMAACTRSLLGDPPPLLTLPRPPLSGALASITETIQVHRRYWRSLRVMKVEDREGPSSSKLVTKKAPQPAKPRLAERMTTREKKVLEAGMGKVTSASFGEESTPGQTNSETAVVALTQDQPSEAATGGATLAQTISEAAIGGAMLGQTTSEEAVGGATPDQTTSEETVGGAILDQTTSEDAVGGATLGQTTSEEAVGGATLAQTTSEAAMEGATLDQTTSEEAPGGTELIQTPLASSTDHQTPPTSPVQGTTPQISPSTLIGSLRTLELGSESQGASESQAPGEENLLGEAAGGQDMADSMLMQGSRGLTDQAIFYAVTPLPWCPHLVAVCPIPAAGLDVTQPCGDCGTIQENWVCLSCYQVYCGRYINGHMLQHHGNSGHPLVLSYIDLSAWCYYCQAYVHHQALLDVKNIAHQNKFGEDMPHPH

[4] = biological target: T2, Histone deacetylase 8 (Homo sapiens, UniProt Q9BY41); experiment: Inhibition of human HDAC8 expressed in baculovirus expression system in Sf9 cells using RHKAcKAc (379 to 382 residues) fluorogenic peptide as substrate and measured after 2 hrs by fluorescence based analysis
T2 sequence (Q9BY41 whole entry): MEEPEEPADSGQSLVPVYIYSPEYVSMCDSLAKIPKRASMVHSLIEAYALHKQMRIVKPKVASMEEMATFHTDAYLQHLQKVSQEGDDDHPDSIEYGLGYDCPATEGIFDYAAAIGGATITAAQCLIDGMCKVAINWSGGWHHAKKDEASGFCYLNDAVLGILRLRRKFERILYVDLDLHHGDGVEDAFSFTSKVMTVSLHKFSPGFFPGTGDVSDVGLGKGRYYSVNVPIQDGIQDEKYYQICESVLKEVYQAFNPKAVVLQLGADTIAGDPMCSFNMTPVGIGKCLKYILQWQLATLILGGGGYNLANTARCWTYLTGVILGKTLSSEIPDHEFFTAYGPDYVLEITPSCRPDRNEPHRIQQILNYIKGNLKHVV

[5] = Antiproliferative activity against human Pulmonary fibroblast cells assessed as reduction in cell viability incubated for 3 days by CCK-8 assay; type: functional, cell-based; settings: 72 h
[6] = Antiproliferative activity against human Pulmonary fibroblast cells assessed as reduction in cell viability by measuring optimal working concentration incubated for 3 days by CCK-8 assay; type: functional; settings: time 3 day
[7] = Metabolic stability in human liver microsomes assessed as parent compound remaining at 200 uM preincubated for 5 mins followed by NADPH and measured at 60 mins by LC-MS/MS analysis
[8] = biological target: Histone deacetylase 2 (Homo sapiens, UniProt Q92769); experiment: Inhibition of human HDAC2 expressed in baculovirus expression system in Sf9 cells using RHKKAc (379 to 382 residues) fluorogenic peptide as substrate and measured after 2 hrs by fluorescence based analysis
Sequence of Histone deacetylase 2 (Q92769 whole entry, the tested form may be a part): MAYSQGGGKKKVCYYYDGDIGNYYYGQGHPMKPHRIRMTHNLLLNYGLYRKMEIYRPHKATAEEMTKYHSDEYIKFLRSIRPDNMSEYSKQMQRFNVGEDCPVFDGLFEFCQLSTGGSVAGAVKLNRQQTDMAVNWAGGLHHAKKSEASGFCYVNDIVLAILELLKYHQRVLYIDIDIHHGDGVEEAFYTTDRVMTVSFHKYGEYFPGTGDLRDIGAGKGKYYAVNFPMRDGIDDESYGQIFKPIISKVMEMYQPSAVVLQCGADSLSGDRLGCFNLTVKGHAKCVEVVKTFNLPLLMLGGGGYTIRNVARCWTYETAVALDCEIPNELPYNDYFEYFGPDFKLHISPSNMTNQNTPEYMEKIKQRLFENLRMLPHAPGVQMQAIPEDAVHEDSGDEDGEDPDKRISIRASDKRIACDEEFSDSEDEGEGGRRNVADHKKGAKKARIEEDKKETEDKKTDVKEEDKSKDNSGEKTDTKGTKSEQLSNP

[9] = biological target: Histone deacetylase 3 (Homo sapiens, UniProt O15379); experiment: Inhibition of human HDAC3 expressed in baculovirus expression system in Sf9 cells using RHKKAc (379 to 382 residues) fluorogenic peptide as substrate and measured after 2 hrs by fluorescence based analysis
Sequence of Histone deacetylase 3 (O15379 whole entry, the tested form may be a part): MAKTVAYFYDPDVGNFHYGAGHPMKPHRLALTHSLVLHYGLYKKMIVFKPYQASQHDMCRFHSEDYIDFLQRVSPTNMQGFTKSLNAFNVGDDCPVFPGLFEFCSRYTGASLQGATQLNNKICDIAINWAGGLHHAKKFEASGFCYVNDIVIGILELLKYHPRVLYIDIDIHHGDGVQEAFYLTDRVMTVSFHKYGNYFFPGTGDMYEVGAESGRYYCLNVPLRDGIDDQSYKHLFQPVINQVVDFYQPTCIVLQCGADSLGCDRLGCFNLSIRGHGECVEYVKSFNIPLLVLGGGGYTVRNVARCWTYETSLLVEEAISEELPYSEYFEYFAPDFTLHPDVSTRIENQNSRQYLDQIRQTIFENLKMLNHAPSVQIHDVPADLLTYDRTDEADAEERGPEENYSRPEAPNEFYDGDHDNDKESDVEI

[10] = biological target: Histone deacetylase 4 (Homo sapiens, UniProt P56524); experiment: Inhibition of human HDAC4 expressed in baculovirus expression system in Sf9 cells using Boc-Lys(trifluoroacetyl)-AMC fluorogenic peptide as substrate and measured after 2 hrs by fluorescence based analysis
Sequence of Histone deacetylase 4 (P56524 whole entry): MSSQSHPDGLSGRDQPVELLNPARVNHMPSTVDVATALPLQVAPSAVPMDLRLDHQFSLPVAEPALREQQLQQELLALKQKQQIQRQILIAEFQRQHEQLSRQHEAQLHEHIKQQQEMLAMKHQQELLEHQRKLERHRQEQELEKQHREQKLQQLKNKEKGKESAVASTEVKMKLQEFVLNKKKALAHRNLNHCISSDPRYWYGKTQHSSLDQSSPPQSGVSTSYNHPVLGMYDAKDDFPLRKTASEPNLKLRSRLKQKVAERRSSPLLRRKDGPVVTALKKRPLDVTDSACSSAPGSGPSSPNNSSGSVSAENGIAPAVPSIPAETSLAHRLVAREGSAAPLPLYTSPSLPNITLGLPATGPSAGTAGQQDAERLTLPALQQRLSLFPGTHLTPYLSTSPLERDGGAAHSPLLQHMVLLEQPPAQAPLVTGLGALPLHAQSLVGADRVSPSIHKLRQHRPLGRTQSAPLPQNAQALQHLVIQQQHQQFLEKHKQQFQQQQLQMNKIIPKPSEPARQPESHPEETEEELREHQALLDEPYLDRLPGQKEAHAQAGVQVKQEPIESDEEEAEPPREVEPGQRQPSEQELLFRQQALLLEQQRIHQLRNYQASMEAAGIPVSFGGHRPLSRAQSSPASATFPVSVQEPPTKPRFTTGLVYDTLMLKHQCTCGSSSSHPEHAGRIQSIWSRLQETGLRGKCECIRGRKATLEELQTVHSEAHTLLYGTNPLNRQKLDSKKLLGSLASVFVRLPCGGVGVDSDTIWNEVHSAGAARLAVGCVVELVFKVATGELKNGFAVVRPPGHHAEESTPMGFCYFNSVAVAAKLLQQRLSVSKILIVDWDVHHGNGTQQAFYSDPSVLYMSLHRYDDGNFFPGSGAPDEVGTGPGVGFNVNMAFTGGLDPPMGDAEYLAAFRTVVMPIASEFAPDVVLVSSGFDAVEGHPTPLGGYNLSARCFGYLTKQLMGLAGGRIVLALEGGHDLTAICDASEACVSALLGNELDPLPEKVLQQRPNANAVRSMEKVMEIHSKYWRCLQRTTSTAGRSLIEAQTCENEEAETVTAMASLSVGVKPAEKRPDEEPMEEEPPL

[11] = biological target: Histone deacetylase 5 (Homo sapiens, UniProt Q9UQL6); experiment: Inhibition of human HDAC5 expressed in baculovirus expression system in Sf9 cells using Boc-Lys(trifluoroacetyl)-AMC fluorogenic peptide as substrate and measured after 2 hrs by fluorescence based analysis
Sequence of Histone deacetylase 5 (Q9UQL6 whole entry): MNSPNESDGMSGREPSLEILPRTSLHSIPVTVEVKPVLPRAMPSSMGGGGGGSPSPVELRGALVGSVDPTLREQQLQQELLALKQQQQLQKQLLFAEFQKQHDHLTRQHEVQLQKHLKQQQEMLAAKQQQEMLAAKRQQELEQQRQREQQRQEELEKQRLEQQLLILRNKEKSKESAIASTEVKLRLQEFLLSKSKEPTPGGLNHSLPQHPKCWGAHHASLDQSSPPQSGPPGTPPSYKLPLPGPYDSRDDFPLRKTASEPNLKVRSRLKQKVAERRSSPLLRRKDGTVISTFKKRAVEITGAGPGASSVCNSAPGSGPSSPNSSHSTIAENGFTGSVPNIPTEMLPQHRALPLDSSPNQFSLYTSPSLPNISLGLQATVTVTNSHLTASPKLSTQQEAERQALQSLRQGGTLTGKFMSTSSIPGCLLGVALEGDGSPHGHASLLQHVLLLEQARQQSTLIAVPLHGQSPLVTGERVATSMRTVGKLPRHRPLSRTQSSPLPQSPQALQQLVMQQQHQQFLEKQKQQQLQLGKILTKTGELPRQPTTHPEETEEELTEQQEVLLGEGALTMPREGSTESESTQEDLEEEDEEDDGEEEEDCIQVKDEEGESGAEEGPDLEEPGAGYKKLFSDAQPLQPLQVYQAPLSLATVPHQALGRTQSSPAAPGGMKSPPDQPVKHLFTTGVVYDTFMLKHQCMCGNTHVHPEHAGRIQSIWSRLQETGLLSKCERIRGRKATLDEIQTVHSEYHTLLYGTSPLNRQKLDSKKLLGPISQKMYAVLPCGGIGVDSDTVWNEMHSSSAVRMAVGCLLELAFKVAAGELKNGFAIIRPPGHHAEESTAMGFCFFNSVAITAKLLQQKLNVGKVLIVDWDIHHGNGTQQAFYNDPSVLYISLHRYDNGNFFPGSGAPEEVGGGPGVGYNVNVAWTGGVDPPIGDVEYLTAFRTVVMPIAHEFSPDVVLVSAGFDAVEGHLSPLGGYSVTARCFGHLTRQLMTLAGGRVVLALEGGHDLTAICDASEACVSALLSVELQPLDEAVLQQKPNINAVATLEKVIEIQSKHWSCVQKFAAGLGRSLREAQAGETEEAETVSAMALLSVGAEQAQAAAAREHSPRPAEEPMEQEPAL

[12] = biological target: Histone deacetylase 9 (Homo sapiens, UniProt Q9UKV0); experiment: Inhibition of human HDAC9 expressed in baculovirus expression system in Sf9 cells using Boc-Lys(trifluoroacetyl)-AMC fluorogenic peptide as substrate and measured after 2 hrs by fluorescence based analysis
Sequence of Histone deacetylase 9 (Q9UKV0 whole entry): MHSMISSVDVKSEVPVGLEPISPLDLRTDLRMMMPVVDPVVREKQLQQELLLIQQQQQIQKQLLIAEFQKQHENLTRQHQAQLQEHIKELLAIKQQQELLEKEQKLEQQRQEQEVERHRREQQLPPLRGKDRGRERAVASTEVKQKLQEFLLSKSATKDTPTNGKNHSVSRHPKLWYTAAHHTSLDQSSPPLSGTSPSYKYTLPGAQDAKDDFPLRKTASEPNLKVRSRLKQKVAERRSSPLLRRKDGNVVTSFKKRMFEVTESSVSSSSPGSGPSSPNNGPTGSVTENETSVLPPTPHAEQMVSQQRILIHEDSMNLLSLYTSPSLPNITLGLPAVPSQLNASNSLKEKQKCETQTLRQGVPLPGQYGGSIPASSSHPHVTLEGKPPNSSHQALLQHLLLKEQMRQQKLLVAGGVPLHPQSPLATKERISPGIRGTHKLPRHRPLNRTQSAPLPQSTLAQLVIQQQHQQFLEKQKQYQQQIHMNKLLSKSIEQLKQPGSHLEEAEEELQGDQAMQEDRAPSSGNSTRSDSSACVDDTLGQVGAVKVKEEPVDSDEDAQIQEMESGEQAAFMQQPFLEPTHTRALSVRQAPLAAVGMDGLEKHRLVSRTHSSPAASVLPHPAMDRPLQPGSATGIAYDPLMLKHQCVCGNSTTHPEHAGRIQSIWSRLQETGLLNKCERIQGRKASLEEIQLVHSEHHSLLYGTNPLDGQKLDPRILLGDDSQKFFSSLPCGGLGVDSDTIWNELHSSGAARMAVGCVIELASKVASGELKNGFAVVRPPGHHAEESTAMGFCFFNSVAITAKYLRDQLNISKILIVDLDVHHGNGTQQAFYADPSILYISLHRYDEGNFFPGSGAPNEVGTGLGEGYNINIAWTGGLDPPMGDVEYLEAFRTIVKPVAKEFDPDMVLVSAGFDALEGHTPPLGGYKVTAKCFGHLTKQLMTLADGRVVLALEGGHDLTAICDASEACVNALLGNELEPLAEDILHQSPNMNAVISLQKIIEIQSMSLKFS

[13] = biological target: T3, Histone deacetylase 11 (Homo sapiens, UniProt Q96DB2); experiment: Inhibition of human HDAC11 expressed in baculovirus expression system in Sf9 cells using Boc-Lys(trifluoroacetyl)-AMC fluorogenic peptide as substrate and measured after 2 hrs by fluorescence based analysis
T3 sequence (Q96DB2 whole entry): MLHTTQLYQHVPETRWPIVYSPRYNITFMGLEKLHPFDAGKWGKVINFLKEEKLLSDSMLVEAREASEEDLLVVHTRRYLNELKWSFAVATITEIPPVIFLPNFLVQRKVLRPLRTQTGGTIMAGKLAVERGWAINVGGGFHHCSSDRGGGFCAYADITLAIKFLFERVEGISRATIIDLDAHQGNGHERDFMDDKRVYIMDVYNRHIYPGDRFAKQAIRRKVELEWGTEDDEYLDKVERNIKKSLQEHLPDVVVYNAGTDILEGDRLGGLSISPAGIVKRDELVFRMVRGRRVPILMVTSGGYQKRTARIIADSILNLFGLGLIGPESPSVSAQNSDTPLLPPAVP

[14] = in vitro; settings: human
[15] = in vitro; settings: human; remark: listed apart in the source
[16] = biological target: Histone deacetylase 1 (Homo sapiens, UniProt Q13547); experiment: Inhibition of human HDAC1 expressed in baculovirus expression system in Sf9 cells using RHKKAc (379 to 382 residues) fluorogenic peptide as substrate and measured after 2 hrs by fluorescence based analysis
Sequence of Histone deacetylase 1 (Q13547 whole entry, the tested form may be a part): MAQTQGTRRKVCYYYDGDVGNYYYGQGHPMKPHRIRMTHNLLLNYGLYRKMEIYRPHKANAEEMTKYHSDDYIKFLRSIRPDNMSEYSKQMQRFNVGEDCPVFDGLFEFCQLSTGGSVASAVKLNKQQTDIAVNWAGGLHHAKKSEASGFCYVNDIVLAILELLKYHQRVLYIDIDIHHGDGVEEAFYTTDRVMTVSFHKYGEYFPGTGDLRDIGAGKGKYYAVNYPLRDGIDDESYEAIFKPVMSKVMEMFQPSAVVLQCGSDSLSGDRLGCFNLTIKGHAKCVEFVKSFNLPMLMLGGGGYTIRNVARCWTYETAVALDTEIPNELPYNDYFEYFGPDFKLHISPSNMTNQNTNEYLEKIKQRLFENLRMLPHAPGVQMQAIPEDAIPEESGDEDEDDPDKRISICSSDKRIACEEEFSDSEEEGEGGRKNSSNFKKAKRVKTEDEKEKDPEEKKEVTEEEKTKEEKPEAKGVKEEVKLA

[17] = in vitro; settings: human, Caco-2
Description: Apparent permeability across apical to basolateral side in human Caco-2 cells at 10 uM preincubated for 10mins followed by compound addition and measured after 90 mins by LC-MS/MS analysis

| Compound | IC50 [1] | MEC [2] | IC50 [3] | IC50 [4] | IC50 [16] | further results |
| --- | --- | --- | --- | --- | --- | --- |
| CCc1nc2c(Cc3ccc(C(=O)NO)cc3)cccc2c(=O)n1CCc1ccccc1 | 338 µM | 0.4 µM |  |  |  |  |
| Cc1nc2cc(/C=C/C(=O)NO)ccc2c(=O)n1-c1ccccc1 | > 40 µM | 20 µM | 0.062 µM | 1.55 µM |  | IC50 [5]: > 40 µM; MEC [6]: 10 µM; remaining at 1 h, 200 µM ([7]; microsomes): 89.6%; IC50 [8]: 7.38 µM; IC50 [9]: 1.59 µM; IC50 [10]: 30 µM; IC50 [11]: 8.41 µM; IC50 [12]: 30 µM; IC50 [13]: 4.7 µM; half-life at 1 h, 200 µM ([14]; microsomes): > 3.11 h; CLint scaled at 1 h, 200 µM ([15]; microsomes): < 6.1 mL/min/kg |
| O=C(NO)c1ccc(Cn2c(=O)n(CCc3ccccc3)c(=O)c3cc(Cl)ccc32)cc1 | 3.79 µM | 0.81 µM |  |  |  |  |
| O=C(NO)c1ccc(Cn2c(=O)n(CCc3ccccc3)c(=O)c3ccc(C(F)(F)F)cc32)cc1 | 4.23 µM | 1.24 µM |  |  |  |  |
| O=C(NO)c1ccc(Cn2c(=O)n(CCc3ccccc3)c(=O)c3ccccc32)cc1 | 5.1 µM | 2.88 µM |  |  | > 10 µM |  |
| COc1ccccc1CCn1c(=O)c2ccccc2n(Cc2ccc(C(=O)NO)cc2)c1=O | 9.55 µM |  |  |  |  |  |
| O=C(NO)c1ccc(Cn2c(=O)[nH]c(=O)c3cc(Br)ccc32)cc1 | 757 µM | 6.05 µM | 0.018 µM | 0.371 µM | 4.28 µM |  |
| O=C(NO)c1ccc(Cn2c(=O)n(CCc3ccccc3O)c(=O)c3ccccc32)cc1 | 9.95 µM | 4.94 µM |  |  |  |  |
| O=C(NO)c1ccc(Cn2c(=O)[nH]c(=O)c3ccc(C(F)(F)F)cc32)cc1 | 16 µM | 4.72 µM | 0.058 µM | 0.302 µM | 5.18 µM |  |
| O=C(CCn1c(=O)n(CCc2ccccc2)c(=O)c2ccccc21)NO | 7.14 µM | 1.14 µM | 0.798 µM | 0.454 µM | > 10 µM |  |
| O=C(NO)c1ccc(Cn2c(=O)[nH]c(=O)c3ccc(F)cc32)cc1 | 15.3 µM | 2.7 µM | 0.0016 µM | 0.154 µM | 0.423 µM |  |
| O=C(NO)c1ccc(Cn2c(=O)[nH]c(=O)c3cc(F)ccc32)cc1 | 4.76 µM |  | 0.006 µM | 0.222 µM | 1.27 µM |  |
| Cc1nc2ccc(/C=C/CC(=O)NO)cc2c(=O)n1-c1ccccc1 | > 40 µM | 10 µM | 0.168 µM | 3.73 µM | 17.3 µM | IC50 [5]: > 40 µM; MEC [6]: 10 µM; remaining at 1 h, 200 µM ([7]; microsomes): 84.3%; half-life at 1 h, 200 µM ([14]; microsomes): > 3.11 h; CLint scaled at 1 h, 200 µM ([15]; microsomes): < 6.1 mL/min/kg |
| O=C(CCn1c(=O)n(Cc2ccccc2)c(=O)c2ccc(Cl)cc21)NO | 9.12 µM | 2.9 µM | 0.047 µM |  | > 10 µM |  |
| O=C(NO)c1ccc(Cn2c(=O)n(CCc3ccccc3)c(=O)c3ccccc32)c(F)c1 | 10.1 µM | 0.73 µM | 0.108 µM | 0.255 µM | 14.5 µM |  |
| O=C(NO)c1ccc(Cn2c(=O)[nH]c(=O)c3c(Cl)cccc32)cc1 | 23.3 µM | 12 µM | 0.013 µM | 0.281 µM | 3.32 µM |  |
| O=C(CS)Nc1ccc(Cn2c(=O)[nH]c(=O)c3cccc(Cl)c32)cc1 |  |  | 0.0053 µM |  |  |  |
| O=C(NO)c1ccc(/C=C/c2nc3ccccc3c(=O)[nH]2)cc1 | 5.02 µM | 2.27 µM | 0.028 µM | 0.325 µM | 16.2 µM | IC50 [5]: > 40 µM; MEC [6]: 10 µM; remaining at 1 h, 200 µM ([7]; liver microsomes): 58.1%; Papp A→B at 1.5 h, 10 µM [17]: 0.3 ×10⁻⁶ cm/s; half-life at 1 h, 200 µM ([14]; liver microsomes): 1.26 h; CLint scaled at 1 h, 200 µM ([15]; liver microsomes): 10.5 mL/min/kg |
| O=C(NO)c1cccc(Cn2c(=O)[nH]c(=O)c3cccc(Cl)c32)c1 | > 40 µM | 10 µM | 5.95 µM | 0.966 µM | > 30 µM |  |
| CCc1nc2ccc(/C=C/CC(=O)NO)cc2c(=O)n1-c1ccccc1 | > 40 µM | 10 µM | 0.285 µM | 3.69 µM | 15.9 µM |  |
| Cn1c(CCC(=O)NO)nc2ccccc2c1=O |  |  | 22 µM | 10.4 µM | > 30 µM |  |
| N#Cc1ccc2c(=O)n(CCc3ccccc3)c(=O)n(Cc3ccc(C(=O)NO)cc3)c2c1 | 735 µM | 4.5 µM |  | 0.13 µM |  |  |
| O=C(NO)c1ccc(-c2nc3ccccc3c(=O)[nH]2)cc1 | > 40 µM | 10 µM | 0.317 µM | 1.62 µM | > 30 µM | IC50 [5]: > 40 µM; MEC [6]: 5 µM |
| O=C(NO)c1ccc(Cn2c(=O)[nH]c(=O)c3cccc(Cl)c32)cc1 | 18.6 µM | 9.7 µM | 0.01 µM | 0.137 µM | 0.19 µM | IC50 [5]: 8.82 µM; MEC [6]: 10 µM; remaining at 1 h, 200 µM ([7]; liver microsomes): 100%; IC50 [8]: 0.378 µM; IC50 [9]: 0.302 µM; IC50 [10]: 0.516 µM; IC50 [11]: 0.211 µM; IC50 [12]: 0.431 µM; IC50 [13]: 0.812 µM; Papp A→B at 1.5 h, 10 µM [17]: 1.4 ×10⁻⁶ cm/s; half-life at 1 h, 200 µM ([14]; liver microsomes): > 3.11 h; CLint scaled at 1 h, 200 µM ([15]; liver microsomes): < 6.1 mL/min/kg |
| COc1ccc2c(c1)[C@]13CCCC[C@@H]1[C@H](C2)N(C)CC3 [DEXTROMETHORPHAN] |  |  |  |  |  | remaining at 1 h, 200 µM ([7]; liver microsomes): 30.4%; half-life at 1 h, 200 µM ([14]; liver microsomes): 0.582 h; CLint scaled at 1 h, 200 µM ([15]; liver microsomes): 14.3 mL/min/kg |
